Assay results: patent US12209079B2 (GENERAL INCORPORATED ASSOCIATION PHARMA VALLEY PROJECT …, priority 2017, dated 2025)
Where a name gives a salt, the structure may show the parent alone.

What was measured:
[1] = target: rhIDO (recombinant human IDO) (Homo sapiens, UniProt P14902); assay: Enzyme assay using rhIDO (rate of kynurenine production); type: biochemical; conditions: 2 h; final concentration of the compound 10 μM; rate relative to reaction without compound; read-out: rhIDO-mediated kynurenine production
Method in brief: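 rhIDO preincubated with compound 10 min at 37 °C in phosphate buffer with ascorbate, methylene blue and catalase; started with 2 mM tryptophan solution (stock) and run 120 min at 37 °C. Stopped with TCA and heated to convert N-formylkynurenine; kynurenine read at 490 nm after p-dimethylbenzaldehyde, background-subtracted, as % of no-compound control.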

[2] = target: rhTDO (recombinant human TDO) (Homo sapiens, UniProt P48775); assay: Enzyme assay using rhTDO (rate of kynurenine production); type: biochemical; conditions: 2 h; final concentration of the compound 10 μM; rate relative to reaction without compound; read-out: rhTDO-mediated kynurenine production
Method in brief: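 Kynurenine output, as percent of untreated control after background subtraction, read at 490 nm with p-dimethylbenzaldehyde following TCA quench and 15 min heating at 50 °C. Reaction: rhTDO with compound, 10 min preincubation then 120 min at 37 °C, started by 20 mM tryptophan stock, in phosphate/ascorbate/methylene blue/catalase.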

IDO in A431 cells = target: T1, IDO in A431 cells (Homo sapiens, UniProt P14902); assay: IDO cell-based assay, kynurenine production in IFN-γ stimulated A431 cells; conditions: A-431, 24 h; final concentration of the compound 10 μM; rate relative to culture without compound
T1 construct: endogenous in cells; host or cells: A431 cells, IFN-γ stimulated
Method in brief: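 A431 cells were cultured 24 h, then preincubated 1 h with compound in medium containing 178 μM L-tryptophan, and stimulated with IFN-γ (diluted to 100 ng/mL before addition) for 24 h. Kynurenine was measured by p-dimethylbenzaldehyde absorbance at 460 nm, background-subtracted, and expressed as % production versus no-compound control.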

TDO in A172 cells = target: T2, TDO in A172 cells (Homo sapiens, UniProt P48775); assay: TDO cell-based assay, kynurenine production in A172 cells; conditions: A 172; final concentration of the compound 10 μM; rate relative to culture without compound
T2 construct: endogenous in cells; host or cells: A172 cells
Method in brief: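 A172 cells were preincubated with compound for 1 h, then given L-tryptophan (final 524 μM) for 24 h at 37 °C. Kynurenine was read at 460 nm after p-dimethylbenzaldehyde/TCA reagent, background-subtracted, and expressed as % of no-compound production.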

T2 sequence (P48775 whole entry): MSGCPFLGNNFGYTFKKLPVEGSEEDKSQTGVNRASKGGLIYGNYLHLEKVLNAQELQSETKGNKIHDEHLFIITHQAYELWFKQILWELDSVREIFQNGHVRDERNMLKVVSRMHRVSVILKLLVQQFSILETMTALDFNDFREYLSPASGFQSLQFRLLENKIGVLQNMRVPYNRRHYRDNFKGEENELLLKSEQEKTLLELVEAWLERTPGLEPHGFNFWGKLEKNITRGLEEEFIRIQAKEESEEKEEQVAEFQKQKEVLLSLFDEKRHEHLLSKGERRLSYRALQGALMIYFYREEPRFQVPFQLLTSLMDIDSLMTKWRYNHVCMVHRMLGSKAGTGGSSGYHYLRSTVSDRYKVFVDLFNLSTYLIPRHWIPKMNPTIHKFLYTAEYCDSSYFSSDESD
Sequence of rhTDO (recombinant human TDO) (P48775 whole entry): as above
Sequence of rhIDO (recombinant human IDO) (P14902 whole entry): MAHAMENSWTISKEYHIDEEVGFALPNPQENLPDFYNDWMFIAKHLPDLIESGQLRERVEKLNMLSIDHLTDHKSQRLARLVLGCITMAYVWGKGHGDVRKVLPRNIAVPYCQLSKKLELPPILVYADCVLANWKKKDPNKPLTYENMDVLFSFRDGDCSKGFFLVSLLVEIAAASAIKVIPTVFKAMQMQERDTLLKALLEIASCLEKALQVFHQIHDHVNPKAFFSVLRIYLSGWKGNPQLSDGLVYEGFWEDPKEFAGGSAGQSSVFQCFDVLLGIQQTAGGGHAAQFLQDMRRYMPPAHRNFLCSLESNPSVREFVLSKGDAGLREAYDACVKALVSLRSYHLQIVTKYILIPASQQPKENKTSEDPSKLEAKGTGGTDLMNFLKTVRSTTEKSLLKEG
T1 sequence (P14902 whole entry): as above

Row | SMILES | remaining activity at 10 µM [1] | remaining activity at 10 µM [2] | remaining activity at 10 µM (IDO in A431 cells) | remaining activity at 10 µM (TDO in A172 cells)
1 | N=C(N)SCc1ccccc1CC(=O)NCCCCc1ccccc1 [Compound 72, 2-(2-Oxo-2-((4-phenylbutyl)amino)ethyl)benzyl carbamimidothioate hydrobromide] | 70% | 47% | 69% | 68%
2 | N=C(N)SCc1cc(Br)ccc1C(=O)NCc1ccc(F)cc1 [Compound 86, 5-Bromo-2-((4-fluorobenzyl)carbamoyl)benzyl carbamimidothioate hydrobromide] | 92% | 46% | 109% | 36%
3 | CNC(=O)c1cccnc1CSC(=N)N [Compound 100, (3-(Methylcarbamoyl)pyridin-2-yl)methyl carbamimidothioate hydrobromide] | 88% | 84% | 93% | 123%
4 | N=C(N)SCc1cc(Br)ccc1C(=O)NCc1ccc(Cl)cc1 [Compound 82, 5-Bromo-2-((4-chlorobenzyl)carbamoyl)benzyl carbamimidothioate hydrobromide] | 89% | 27% | 99% | 37%
5 | COc1ccc(CCN2CN=C(SCc3ccc(F)cc3CSC3=NCN(CCc4ccc(OC)cc4)CN3)NC2)cc1 [Compound 147, 6,6′-(((4-Fluoro-1,2-phenylene)bis(methylene))bis(sulfanediyl))bis(3-(4-methoxyphenethyl)-1,2,3,4-tetrahydro-1,3,5-triazine)] | 32% | 10% | 16% | 16%
6 | Fc1ccc(CSC2=NCN(CCc3ccc(C(F)(F)F)cc3)CN2)c(CSC2=NCN(CCc3ccc(C(F)(F)F)cc3)CN2)c1 [Compound 140, 6,6′-(((4-Fluoro-1,2-phenylene)bis(methylene))bis(sulfanediyl))bis(3-(4-(trifluoromethyl)phenethyl)-1,2,3,4-tetrahydro-1,3,5-triazine)] | 34% | 16% | 15% | 9%
7 | FC(F)(F)c1ccc(CCN2CN=C(SCc3cc(Cl)c(Cl)cc3CSC3=NCN(CCc4ccc(C(F)(F)F)cc4)CN3)NC2)cc1 [Compound 143, 6,6′-(((4,5-Dichloro-1,2-phenylene)bis(methylene))bis(sulfanediyl))bis(3-(4-(trifluoromethyl)phenethyl)-1,2,3,4-tetrahydro-1,3,5-triazine)] | 17% | 6% | 9% | 7%
8 | N=C(N)SCc1cccc(F)c1CSC(=N)N [Compound 13, (3-fluoro-1,2-phenylene)bis(methylene) dicarbamimidothioate dihydrobromide] | 15% | 9% | 32% | 42%
9 | N/C(=N\c1ccc(F)cc1)SCc1ccc(F)cc1CS/C(N)=N/c1ccc(F)cc1 [Compound 127, (4-Fluoro-1,2-phenylene)bis(methylene) (E,E)-bis(N′-(4-fluorophenyl)carbamimidothioate) dihydrobromide] | 0% | 12% | 8% | 10%
10 | N#Cc1ccc(CNC(=O)c2ncccc2CSC(=N)N)cc1 [Compound 99, (2-((4-Cyanobenzyl)carbamoyl)pyridin-3-yl)methyl carbamimidothioate hydrobromide] | 96% | 75% | 102% | 106%
11 | C/N=C(\NC)SCc1ccccc1CS/C(=N/C)NC [Compound 8, 1,2-phenylenebis(methylene) (E,E)-bis(N,N′-dimethylcarbamimidothioate) dihydrodhloride] | 77% | 52% | 10% | 20%
12 | Clc1ccccc1CCN1CN=C(SCc2ccc(Br)cc2CSC2=NCN(CCc3ccccc3Cl)CN2)NC1 [Compound 53, 6,6′-(((4-Bromo-1,2-phenylene)bis(methylene))bis(sulfanediyl))bis(3-(2-chlorophenethyl)-1,2,3,4-tetrahydro-1,3,5-triazine)] | 16% | 19% | 5% | 17%

More lines, now with the values ahead:

Row | remaining activity at 10 µM [1] | remaining activity at 10 µM [2] | remaining activity at 10 µM (IDO in A431 cells) | remaining activity at 10 µM (TDO in A172 cells) | SMILES
13 | 6% | 6% | 1% | 4% | Brc1ccc(CSC2=NCN(CCC3CCCCC3)CN2)c(CSC2=NCN(CCC3CCCCC3)CN2)c1 [Compound 60, 6,6′-(((4-Bromo-1,2-phenylene)bis(methylene))bis(sulfanediyl))bis(3-(2-cyclohexylethyl)-1,2,3,4-tetrahydro-1,3,5-triazine)]
14 | 40% | 53% | 7% | 3% | Clc1ccccc1CCN1CN=C(SCc2ccccc2CSC2=NCN(CCc3ccccc3Cl)CN2)NC1 [Compound 28, 1,2-bis(((5-(2-chlorophenethyl)-1,4,5,6-tetrahydro-1,3,5-triazin-2-yl)thio)methyl)benzene]
15 | -2% | 8% | 7% | 14% | N/C(=N\c1ccc(F)c(Cl)c1)SCc1ccc(F)cc1CS/C(N)=N/c1ccc(F)c(Cl)c1 [Compound 129, (4-Fluoro-1,2-phenylene)bis(methylene) (E,E)-bis(N′-(3-chloro-4-fluorophenyl)carbamimidothioate) dihydrobromide]
16 | 30% | 25% | 8% | 0% | Clc1ccc(CCN2CN=C(SCc3ccccc3CSC3=NCN(CCc4ccc(Cl)cc4)CN3)NC2)cc1 [Compound 17, 1,2-bis(((5-(4-chlorophenethyl)-1,4,5,6-tetrahydro-1,3,5-triazin-2-yl)thio)methyl)benzene]
17 | 90% | 34% | 60% | 38% | CNC(=O)Cc1ccccc1CS/C(N)=N/c1ccc(Br)cc1 [Compound 79, 2-(2-(Methylamino)-2-oxoethyl)benzyl (E)-N′-(4-bromophenyl)carbamimidothioate hydrobromide]
18 | -2% | 10% | 12% | 4% | N/C(=N\c1ccc(Cl)cc1)SCc1cc(Cl)c(Cl)cc1CS/C(N)=N/c1ccc(Cl)cc1 [Compound 123, (4,5-Dichloro-1,2-phenylene)bis(methylene) (E,E)-bis(N′-(4-chlorophenyl)carbamimidothioate) dihydrobromide]
19 | 141% | 126% | 82% | 94% | O=C1CC(=O)NC(SCc2ccccc2CSC2=NC(=O)CC(=O)N2)=N1 [Compound 30, 2,2′-((1,2-phenylenebis(methylene))bis(sulfanediyl))bis(pyrimidine-4,6(1H,5H)-dione)]
20 | -2% | 5% | 11% | 5% | N/C(=N\c1ccc(Cl)cc1)SCc1cc(F)c(F)cc1CS/C(N)=N/c1ccc(Cl)cc1 [Compound 132, (4,5-Difluoro-1,2-phenylene)bis(methylene) (E,E)-bis(N′-(4-chlorophenyl)carbamimidothioate) dihydrobromide]
21 | 15% | 35% | 3% | 20% | N#Cc1ccc(CNC(=O)c2cc(Br)ccc2CS/C(N)=N/c2ccc(F)c(Cl)c2)cc1 [Compound 118, 4-Bromo-2-((4-cyanobenzyl)carbamoyl)benzyl (E)-N′-(3-chloro-4-fluorophenyl)carbamimidothioate hydrobromide]
22 | 27% | 44% | 6% | 0% | Brc1ccc(CCN2CN=C(SCc3ccccc3CSC3=NCN(CCc4ccc(Br)cc4)CN3)NC2)cc1 [Compound 20, 1,2-bis(((5-(4-bromophenethyl)-1,4,5,6-tetrahydro-1,3,5-triazin-2-yl)thio)methyl)benzene]
